Data as given in the supplement of paper PMC4862054.

Legend:
Conditions in all cases: incubation time: 72 h
[1] = test system: DU-4475; test: normalised response (% of control), CellTox Green; higher = less cell death (100 = DMSO, 0 = benzethonium chloride kill control)
Procedure, shortened: (§1)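 Breast cancer cell lines, seeded at 20 µl suspension per well, were incubated for 72 h in 384-well plates containing compound at 5 concentrations. These concentrations rose in 10-fold steps over a 10,000-fold range set for each compound. CellTox Green fluorescence (485/520 nm) was read, then CellTiter-Glo luminescence after 10 min at room temperature, and each plate was normalised to 0.1 % DMSO (100) and a positive kill control (0). Values are normalised signals, each at one concentration.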

[2] = test system: MDA-MB-453; test: as above
Procedure, shortened: as §1

[3] = test system: CAL-51; test: as above
Procedure, shortened: as §1

[4] = test system: BT-549; test: as above
Procedure, shortened: as §1

[5] = test system: MDA-MB-468; test: as above
Procedure, shortened: as §1

[6] = test system: MDA-MB-436; test: as above
Procedure, shortened: as §1

[7] = test system: MDA-MB-231; test: as above
Procedure, shortened: as §1

[8] = test system: HCC1599; test: as above
Procedure, shortened: as §1

[9] = test system: CAL-85-1; test: as above
Procedure, shortened: as §1

[10] = test system: MCF-10A; test: as above
Procedure, shortened: as §1

[11] = test system: BT-474; test: as above
Procedure, shortened: as §1

[12] = test system: MFM-223; test: as above
Procedure, shortened: as §1

[13] = test system: CAL-120; test: as above
Procedure, shortened: as §1

[14] = test system: HDQ-P1; test: as above
Procedure, shortened: as §1

[15] = test system: HCC1143; test: as above
Procedure, shortened: as §1

[16] = test system: CAL-148; test: as above
Procedure, shortened: as §1

[17] = test system: DU-4475; test: normalised response (% of control), CellTiter-Glo; higher = more viable cells (100 = DMSO, 0 = benzethonium chloride kill control)
Procedure: (§2)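 DSRT, 72 h incubation, CellTox Green / CellTiter-Glo readout. Signal is normalised to DMSO and benzethonium chloride controls. Value is the normalised response at dose 3.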

[18] = test system: MDA-MB-453; test: as above
Procedure: as §2

[19] = test system: CAL-51; test: as above
Procedure: as §2

[20] = test system: BT-549; test: as above
Procedure: as §2

[21] = test system: MDA-MB-468; test: as above
Procedure: as §2

[22] = test system: MDA-MB-436; test: as above
Procedure: as §2

[23] = test system: Hs578T; test: as above
Procedure: as §2

[24] = test system: MDA-MB-231; test: as above
Procedure: as §2

[25] = test system: HCC1599; test: as above
Procedure: as §2

[26] = test system: CAL-85-1; test: as above
Procedure: as §2

[27] = test system: HCC1937; test: as above
Procedure: as §2

[28] = test system: MCF-10A; test: as above
Procedure: as §2

[29] = test system: BT-474; test: as above
Procedure: as §2

[30] = test system: MFM-223; test: as above
Procedure: as §2

[31] = test system: CAL-120; test: as above
Procedure: as §2

[32] = test system: HDQ-P1; test: as above
Procedure: as §2

[33] = test system: HCC1143; test: as above
Procedure: as §2

[34] = test system: SK-BR-3; test: as above
Procedure: as §2

[35] = test system: CAL-148; test: as above
Procedure: as §2

[36] = test system: Hs578T; test: normalised response (% of control), CellTox Green; higher = less cell death (100 = DMSO, 0 = benzethonium chloride kill control)
Procedure, shortened: as §1

[37] = test system: HCC1937; test: as above
Procedure, shortened: as §1

Structure (SMILES) | normalised response [1] | normalised response [2] | normalised response [3] | normalised response [4] | normalised response [5] | normalised response [6] | normalised response [7] | normalised response [8] | normalised response [9] | normalised response [10] | normalised response [11] | normalised response [12] | normalised response [13] | normalised response [14] | normalised response [15] | normalised response [16] | normalised response [17] | normalised response [18] | normalised response [19] | normalised response [20] | normalised response [21] | normalised response [22] | normalised response [23] | normalised response [24] | normalised response [25] | normalised response [26] | normalised response [27] | normalised response [28] | normalised response [29] | normalised response [30] | normalised response [31] | normalised response [32] | normalised response [33] | normalised response [34] | normalised response [35] | normalised response [36] | normalised response [37]
CCc1cncnc1N1CCN(Cc2nc3ccc(C(F)(F)F)cc3[nH]2)CC1 (100 nM) | 101% | 87.5% | 86.3% | 83.3% | 108% | 99.8% | 105% | 99.1% | 99.3% | 86.4% | 97.9% | 106% | 96% | 96% | 118% | 108% | 106% | 106% | 88.2% | 92.9% | 106% | 108% | 109% | 110% | 99.9% | 95.8% | 98.6% | 108% | 105% | 110% | 109% | 97.7% | 107% | 107% | 116% | – | –
C[C@H]1C[C@@H]2[C@H]([C@@H](O)C[C@@]3(C)[C@H]2CC[C@]3(O)C(=O)CO)[C@@]2(C)C=CC(=O)C=C12 [Methylprednisolone] (100 nM) | 102% | 76.2% | 111% | 103% | 169% | 89.9% | 140% | 110% | 102% | 101% | 98.9% | 78.2% | 103% | – | 90.4% | 107% | 108% | 99.9% | 86.4% | 101% | 111% | 104% | 107% | 156% | 97.9% | 115% | 98.3% | 106% | 152% | 109% | 76.9% | 90.5% | 108% | 104% | 109% | 89% | 115%
O=C(O)C(=O)O.[NH-][C@@H]1CCCC[C@H]1[NH-].[Pt+2] [Oxaliplatin] (100 nM) | 96.8% | 97.2% | 84.7% | 110% | 110% | – | 89.6% | 94.2% | 93.8% | 70% | 93% | 76.6% | 100% | 110% | 89.3% | 61.1% | 92.5% | 87.5% | 77% | 108% | 89.3% | 103% | 97.9% | 97.2% | 93% | 96.9% | 93.1% | 97.5% | 99% | 94.3% | 103% | 104% | 99% | 84.8% | 85.6% | – | 79.4%
CC[C@H](C)C(=O)O[C@H]1C[C@H](O)C=C2C=C[C@H](C)[C@H](CC[C@@H](O)C[C@@H](O)CC(=O)O)[C@H]21 [Pravastatin] (100 nM) | 101% | 98.4% | 73.3% | 103% | 107% | -74.8% | 102% | 96.2% | 97.9% | 99% | 99.2% | 98.2% | 97.2% | 100% | 79.9% | 88.8% | 95.7% | 85.9% | 63.4% | 101% | 97.7% | 13.5% | 93.2% | 97.8% | 88.7% | 99% | 93.7% | 97.4% | 99.2% | 88.8% | 101% | 98% | 101% | 93.6% | 86.3% | – | 95.9%
